Like-named read-outs stand apart in the source and are kept apart here.
How the values were obtained:
[1] = biological target: T1, 5HT2A receptor (Homo sapiens, UniProt P28223); test: cell-based; design: expressed in transfected cells; host or cells: HEK293T cells, transient co-transfection; settings: for Emax: HEK-293T
[2] = biological target: T1, 5HT2A receptor; test: cell-based; design: expressed in transfected cells; host or cells: HEK293T cells, transient co-transfection; settings: for Emax: HEK-293T; remark: listed apart in the source
[3] = biological target: T1, 5HT2A receptor; test: biochemical; type: binding; design: expressed in transfected cells; crude membranes
[4] = 5HT2A β-Arr EC50 (nM), BRET1 beta-arrestin2 recruitment, HEK293T
[5] = read-out: 5HT2A β-Arr Emax (%), BRET1 beta-arrestin2 recruitment, HEK293T, normalized to 5-HT
[6] = 5HTA Gq EC50 (nM), BRET2 Gαq dissociation, HEK293T
[7] = read-out: 5HTA Gq Emax (%), BRET2 Gαq dissociation, HEK293T, normalized to 5-HT
[8] = 5HT2A Ki (nM), secondary binding assay, Cheng-Prusoff
[9] = 5HT2A β-Arr EC50 (nM), BRET1 beta-arrestin2 recruitment, HEK293T cells
[10] = BRET1 beta-arrestin2 recruitment, HEK293T cells, normalized to 5-HT, read-out: 5HT2A β-Arr Emax (%)
[11] = 5HT2A Gq EC50 (nM), BRET2 Gαq dissociation, HEK293T cells
[12] = BRET2 Gαq dissociation, HEK293T cells, normalized to 5-HT, read-out: 5HT2A Gq Emax (%)
[13] = 5HT2A Ki (nM), secondary radioligand binding, Ki from IC50 by Cheng-Prusoff
[14] = BRET2 Gαq dissociation, HEK293T cells, read-out: 5HT2A Gq EC50
[15] = BRET1 beta-arrestin2 recruitment, HEK293T, normalized to 5-HT, read-out: 5HT2A β-Arr Emax (%)
[16] = BRET2 Gαq dissociation, HEK293T, normalized to 5-HT, read-out: 5HTA Gq Emax (%)
[17] = BRET1 beta-arrestin2 recruitment, HEK293T cells, read-out: 5HT2A β-Arr EC50
[18] = secondary radioligand binding, Ki from IC50 by Cheng-Prusoff, read-out: 5HT2A Ki
[19] = BRET2 Gαq dissociation, HEK293T, read-out: 5HTA Gq EC50

T1 sequence (P28223 whole entry): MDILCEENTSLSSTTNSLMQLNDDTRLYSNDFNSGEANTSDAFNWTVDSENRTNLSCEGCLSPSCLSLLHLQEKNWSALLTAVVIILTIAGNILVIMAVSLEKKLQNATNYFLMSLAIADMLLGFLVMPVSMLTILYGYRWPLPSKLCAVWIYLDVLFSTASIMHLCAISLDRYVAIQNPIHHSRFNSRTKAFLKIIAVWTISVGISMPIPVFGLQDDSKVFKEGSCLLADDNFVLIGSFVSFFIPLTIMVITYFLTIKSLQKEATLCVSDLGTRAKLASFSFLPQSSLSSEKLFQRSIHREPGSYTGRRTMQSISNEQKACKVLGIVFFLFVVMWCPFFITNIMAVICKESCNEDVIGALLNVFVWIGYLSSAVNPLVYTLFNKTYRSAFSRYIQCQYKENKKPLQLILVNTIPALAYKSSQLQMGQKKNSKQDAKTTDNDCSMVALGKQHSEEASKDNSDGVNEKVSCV

Row | SMILES | EC50 [1, 4] [nM] | EC50 [2, 6] [nM] | Ki [3, 8] [nM] | EC50 [1, 9] [nM] | Emax [1, 10] [%] | Emax [2, 12] [%] | Emax [1, 15] [%] | Emax [2, 16] [%] | also measured
1 | Fc1ccc2c(C34CNCC3C4)c[nH]c2c1Cl (centres unmarked) [Example 280, 3-(3-azabicyclo[3.1.0]hexan-1-yl)-7-chloro-6-fluoro-1H-indole] | 256 | 38.1 | 63.8 |  |  |  |  |  | Emax [1, 5]: 55.6%; Emax [2, 7]: 81.6%
2 | Clc1cccc2c(C3=CCCCNC3)n[nH]c12 [Example 208, 7-chloro-3-(2,5,6,7-tetrahydro-1H-azepin-3-yl)-1H-indazole] | 1900 | 849 | > 10000 |  |  |  |  |  | Emax [1, 5]: 48.9%; Emax [2, 7]: 95.7%
3 | CN1CCC=C(c2c[nH]c3nccc(Cl)c23)C1 [Example 15, 4-chloro-3-(1-methyl-1,2,5,6-tetrahydropyridin-3-yl)-1H-pyrrolo[2,3-b]pyridine] |  |  |  | 683 | 31.5 | 68.8 |  |  | EC50 [2, 11]: 23.5 nM; Ki [3, 13]: 465 nM
4 | Cc1cccc2[nH]nc(C3=CCCNC3)c12 [Example 80, 4-methyl-3-(1,2,5,6-tetrahydropyridin-3-yl)-1H-indazole] |  |  |  | 698 | 71.8 | 83.4 |  |  | EC50 [2, 14]: 73.8 nM; Ki [3, 13]: 254 nM
5 | COC1(c2c[nH]c3c(Cl)cccc23)CNC1 [Example 254, 7-chloro-3-(3-methoxyazetidin-3-yl)-1H-indole] | 1460 | 294 | 1080 |  |  |  | 77.6 | 88.3 | 
6 | CC(C)c1ccc2[nH]cc(C3=CCCNC3)c2c1 [Example 23, 5-isopropyl-3-(1,2,5,6-tetrahydropyridin-3-yl)-1H-indole] |  |  |  |  | 31.4 | 58.8 |  |  | EC50 [1, 17]: 735 nM; EC50 [2, 14]: 65.7 nM; Ki [3, 18]: 98.6 nM
7 | Cc1cccc2c(C34CNCC3C4)n[nH]c12 (centres unmarked) [Example 186, 3-(3-azabicyclo[3.1.0]hexan-1-yl)-7-methyl-1H-indazole] | 481 | 231 | 748 |  |  |  | 46.9 | 98.8 | 
8 | Cc1cccc2c(C3CN(C)C3)c[nH]c12 [Example 261, 7-methyl-3-(1-methylazetidin-3-yl)-1H-indole] | 1650 | 196 | 1680 |  |  |  | 26.1 | 69.3 | 
9 | COc1cccc2[nH]nc(C3=CCCNC3)c12 [Example 83, 4-methoxy-3-(1,2,5,6-tetrahydropyridin-3-yl)-1H-indazole] |  |  |  |  | 75.9 | 81.7 |  |  | EC50 [1, 17]: 109 nM; EC50 [2, 14]: 12.5 nM; Ki [3, 18]: 78.8 nM
10 | CCCN1CCC=C(c2c[nH]c3c(F)cccc23)C1 [Example 156, 7-fluoro-3-(1-propyl-1,2,5,6-tetrahydropyridin-3-yl)-1H-indole] |  |  | 164 |  |  |  | 58.4 | 103 | EC50 ([1]; BRET1 beta-arrestin2 recruitment, HEK293T, read-out: 5HT2A β-Arr EC50): 61.2 nM; EC50 [2, 19]: 20.2 nM
11 | CCCN1CCC=C(c2c[nH]c3c(C#N)cccc23)C1 [Example 157, 3-(1-propyl-1,2,5,6-tetrahydropyridin-3-yl)-1H-indole-7-carbonitrile] | 500 |  | 164 |  |  |  | 39.3 | 78 | EC50 [2, 19]: 93 nM
12 | Cc1cc(F)cc2c(C3=CCCN(C)C3)c[nH]c12 [Example 116, 5-fluoro-7-methyl-3-(1-methyl-1,2,5,6-tetrahydropyridin-3-yl)-1H-indole] |  |  |  | 129 | 56.1 | 125 |  |  | EC50 [2, 14]: 74 nM; Ki [3, 18]: 99.6 nM
13 | CN1CC=C(c2c[nH]c3c(Cl)cccc23)C1 [Example 210, 7-chloro-3-(1-methyl-2,5-dihydro-1H-pyrrol-3-yl)-1H-indole] | 119 |  |  |  |  |  | 33.6 | 74.9 | EC50 [2, 19]: 33.1 nM; Ki ([3]; secondary binding assay, Cheng-Prusoff, read-out: 5HT2A Ki): 86.1 nM
14 | Clc1cc(Br)cc2c(C3CNC3)c[nH]c12 [Example 267, 3-(azetidin-3-yl)-5-bromo-7-chloro-1H-indole] | 1050 | 949 | 175 |  |  |  | 20.8 | 64 | 
15 | CCCN1CC=C(c2n[nH]c3c(Cl)cccc23)C1 [Example 213, 7-chloro-3-(1-propyl-2,5-dihydro-1H-pyrrol-3-yl)-1H-indazole] | 211 |  | 1770 |  |  |  | 31.5 | 61.3 | EC50 [2, 19]: 72.7 nM
16 | CN1CCC=C(c2c[nH]c3nccc(F)c23)C1 [Example 117, 4-fluoro-3-(1-methyl-1,2,5,6-tetrahydropyridin-3-yl)-1H-pyrrolo[2,3-b]pyridine] |  |  |  | 865 | 51.1 | 110 |  |  | EC50 [2, 11]: 253 nM; Ki [3, 13]: 1360 nM
17 | CN1CCC=C(c2n[nH]c3ccc(F)cc23)C1 [Example 102, 5-fluoro-3-(1-methyl-1,2,5,6-tetrahydropyridin-3-yl)-1H-indazole] |  |  |  | 129 | 79.8 | 84.5 |  |  | EC50 [2, 14]: 9 nM; Ki [3, 13]: 246 nM
18 | Clc1cccc2c(C34CNCCC3C4)c[nH]c12 (centres unmarked) [Example 269, 3-(3-azabicyclo[4.1.0]heptan-1-yl)-7-chloro-1H-indole] | 1380 | 257 | 743 |  |  |  |  |  | Emax [1, 5]: 30%; Emax [2, 7]: 88.8%
19 | COc1cccc2[nH]nc(C3=CCCN(C)C3)c12 [Example 100, 4-methoxy-3-(1-methyl-1,2,5,6-tetrahydropyridin-3-yl)-1H-indazole] |  |  |  | 460 | 52.4 | 63.9 |  |  | EC50 [2, 14]: 91.6 nM; Ki [3, 13]: 349 nM
20 | CC#CCN1CCC=C(c2n[nH]c3c(Cl)cccc23)C1 [Example 149, 3-(1-(but-2-yn-1-yl)-1,2,5,6-tetrahydropyridin-3-yl)-7-chloro-1H-indazole] | 113 | 10.1 | 364 |  |  |  |  |  | Emax [1, 5]: 24.2%; Emax [2, 7]: 49.8%
21 | Fc1cccc2c(C3=CCCN(Cc4ccccc4)C3)c[nH]c12 [Example 73, 3-(1-benzyl-1,2,5,6-tetrahydropyridin-3-yl)-7-fluoro-1H-indole] |  |  |  | 331 | 56.5 | 81.9 |  |  | EC50 [2, 11]: 116 nM; Ki [3, 13]: 151 nM
22 | FC1(F)C2CNCC21c1n[nH]c2c(Cl)cccc12 (centres unmarked) [Example 199, 7-chloro-3-(6,6-difluoro-3-azabicyclo[3.1.0]hexan-1-yl)-1H-indazole] | 956 | 174 | 3440 |  |  |  | 76.5 | 87.1 | 

Source: patent US20260265246A1 (ICAHN SCHOOL OF MEDICINE AT MOUNT SINAI, priority 2021, published 2026)
